What was measured:
MeV F = MeV F (Measles virus, UniProt Q786F3); assay type: cell-based; settings: with or without 3g, coincubation or sequential incubation; Figure S17
MeV F (S262R) = MeV F (S262R) (Measles virus, UniProt Q786F3, S262R); assay type: cell-based; settings: 1 μM, 60 min 37 °C, then 10 mM zanamivir; triplicate experiments

N#Cc1cccc(NC(=O)Cc2ccccc2)c1 [3g, N-(3-Cyanophenyl)-2-phenylacetamide]
colocalization of [FIP–HRC]2–PEG11 with F (MeV F): colocalization is disrupted | step of entry at which the compound acts (RBCs released, retained or fused) (MeV F (S262R)): reversibly bound RBC

Reference: publication PMC9164017 (ACS nano, 2021)
